Reference: PMC5428509, “Irreversible inhibition of BTK kinase by a novel highly selective inhibitor CHMFL-BTK-11 suppresses inflammatory response in rheumatoid arthritis model” (Scientific Reports, 2017)

What was measured:
Test in all cases: biochemical
Parameters in all cases: KinomeScan competition binding panel (DiscoveRx), percent of control at 1 uM
Conditions in all cases: read-out: Percent Control
[1] = target: T1, ABL1(H396P)-nonphosphorylated (Homo sapiens, UniProt P00519, H396P)
T1 construct: nonphosphorylated
Procedure, shortened: (§1)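 Selectivity profiled across 456 kinases/mutants by KinomeScan binding technology.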

[2] = target: T2, ABL1(M351T)-phosphorylated (Homo sapiens, UniProt P00519, M351T)
T2 construct: phosphorylated
Procedure, shortened: as §1

ACVR2B = ACVR2B (Homo sapiens, UniProt Q13705)
Procedure, shortened: as §1

CAMK2B = CAMK2B (Homo sapiens, UniProt Q13554)
Procedure, shortened: as §1

EPHA5 = EPHA5 (Homo sapiens, UniProt P54756)
Chain of EPHA5 (P54756 whole entry): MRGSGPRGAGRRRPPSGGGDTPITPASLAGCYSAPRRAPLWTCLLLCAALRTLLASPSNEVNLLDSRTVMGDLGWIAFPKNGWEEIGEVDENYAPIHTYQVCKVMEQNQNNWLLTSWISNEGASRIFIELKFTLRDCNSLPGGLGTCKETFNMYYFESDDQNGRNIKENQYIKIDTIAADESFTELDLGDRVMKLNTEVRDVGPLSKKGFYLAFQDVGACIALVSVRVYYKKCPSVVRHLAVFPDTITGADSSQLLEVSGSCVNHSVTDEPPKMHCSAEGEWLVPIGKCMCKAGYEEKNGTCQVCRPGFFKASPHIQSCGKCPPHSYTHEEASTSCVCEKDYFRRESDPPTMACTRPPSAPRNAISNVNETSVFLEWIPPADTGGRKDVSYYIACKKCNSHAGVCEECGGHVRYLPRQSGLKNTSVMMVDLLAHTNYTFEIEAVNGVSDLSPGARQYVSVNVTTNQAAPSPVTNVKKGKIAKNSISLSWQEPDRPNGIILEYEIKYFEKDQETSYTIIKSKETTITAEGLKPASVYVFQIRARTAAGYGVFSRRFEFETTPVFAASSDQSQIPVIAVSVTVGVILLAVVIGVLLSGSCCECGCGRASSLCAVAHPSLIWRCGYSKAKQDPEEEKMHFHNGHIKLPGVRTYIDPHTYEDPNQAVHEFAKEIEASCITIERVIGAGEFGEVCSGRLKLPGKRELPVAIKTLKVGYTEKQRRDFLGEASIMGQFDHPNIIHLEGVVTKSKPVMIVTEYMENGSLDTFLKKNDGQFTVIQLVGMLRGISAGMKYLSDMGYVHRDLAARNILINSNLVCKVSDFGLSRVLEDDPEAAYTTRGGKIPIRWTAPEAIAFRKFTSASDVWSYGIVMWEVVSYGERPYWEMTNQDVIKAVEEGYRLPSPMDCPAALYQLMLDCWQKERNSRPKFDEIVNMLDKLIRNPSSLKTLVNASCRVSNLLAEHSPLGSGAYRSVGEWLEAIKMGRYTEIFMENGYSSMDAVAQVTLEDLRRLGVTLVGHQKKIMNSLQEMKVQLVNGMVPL
Procedure, shortened: as §1

EPHB3 = EPHB3 (Homo sapiens, UniProt P54753)
Chain of EPHB3 (P54753 whole entry): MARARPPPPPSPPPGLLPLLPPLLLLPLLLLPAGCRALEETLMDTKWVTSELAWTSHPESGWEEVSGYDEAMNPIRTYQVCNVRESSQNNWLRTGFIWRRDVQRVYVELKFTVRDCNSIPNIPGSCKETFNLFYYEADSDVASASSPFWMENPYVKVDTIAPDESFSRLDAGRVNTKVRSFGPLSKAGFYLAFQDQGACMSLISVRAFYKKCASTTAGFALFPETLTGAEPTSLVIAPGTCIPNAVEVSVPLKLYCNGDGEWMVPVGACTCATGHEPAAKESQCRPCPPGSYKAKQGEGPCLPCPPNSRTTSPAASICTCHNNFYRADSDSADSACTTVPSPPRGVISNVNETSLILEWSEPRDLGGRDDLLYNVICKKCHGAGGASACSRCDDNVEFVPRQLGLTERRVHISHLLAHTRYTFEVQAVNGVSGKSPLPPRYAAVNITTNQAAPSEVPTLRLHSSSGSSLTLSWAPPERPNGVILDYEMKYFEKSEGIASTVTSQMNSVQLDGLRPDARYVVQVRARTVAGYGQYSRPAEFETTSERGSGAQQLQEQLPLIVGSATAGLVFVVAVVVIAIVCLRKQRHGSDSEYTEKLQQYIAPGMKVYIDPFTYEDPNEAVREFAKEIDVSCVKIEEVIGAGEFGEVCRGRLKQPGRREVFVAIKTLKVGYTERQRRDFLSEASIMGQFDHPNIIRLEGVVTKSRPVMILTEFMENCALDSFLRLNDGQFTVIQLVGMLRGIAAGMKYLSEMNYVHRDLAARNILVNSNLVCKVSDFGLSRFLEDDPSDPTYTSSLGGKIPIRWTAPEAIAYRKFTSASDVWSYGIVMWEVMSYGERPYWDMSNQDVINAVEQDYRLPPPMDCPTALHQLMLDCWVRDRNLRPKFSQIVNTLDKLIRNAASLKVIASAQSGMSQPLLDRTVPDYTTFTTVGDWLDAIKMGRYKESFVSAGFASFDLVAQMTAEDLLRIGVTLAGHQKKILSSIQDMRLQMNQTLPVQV
Procedure, shortened: as §1

ERK1 = target: T3, ERK1 (Homo sapiens, UniProt P27361)
T3 construct: gene MAPK3
Procedure, shortened: as §1

FLT1 = FLT1 (Homo sapiens, UniProt P17948)
Chain of FLT1 (P17948 whole entry): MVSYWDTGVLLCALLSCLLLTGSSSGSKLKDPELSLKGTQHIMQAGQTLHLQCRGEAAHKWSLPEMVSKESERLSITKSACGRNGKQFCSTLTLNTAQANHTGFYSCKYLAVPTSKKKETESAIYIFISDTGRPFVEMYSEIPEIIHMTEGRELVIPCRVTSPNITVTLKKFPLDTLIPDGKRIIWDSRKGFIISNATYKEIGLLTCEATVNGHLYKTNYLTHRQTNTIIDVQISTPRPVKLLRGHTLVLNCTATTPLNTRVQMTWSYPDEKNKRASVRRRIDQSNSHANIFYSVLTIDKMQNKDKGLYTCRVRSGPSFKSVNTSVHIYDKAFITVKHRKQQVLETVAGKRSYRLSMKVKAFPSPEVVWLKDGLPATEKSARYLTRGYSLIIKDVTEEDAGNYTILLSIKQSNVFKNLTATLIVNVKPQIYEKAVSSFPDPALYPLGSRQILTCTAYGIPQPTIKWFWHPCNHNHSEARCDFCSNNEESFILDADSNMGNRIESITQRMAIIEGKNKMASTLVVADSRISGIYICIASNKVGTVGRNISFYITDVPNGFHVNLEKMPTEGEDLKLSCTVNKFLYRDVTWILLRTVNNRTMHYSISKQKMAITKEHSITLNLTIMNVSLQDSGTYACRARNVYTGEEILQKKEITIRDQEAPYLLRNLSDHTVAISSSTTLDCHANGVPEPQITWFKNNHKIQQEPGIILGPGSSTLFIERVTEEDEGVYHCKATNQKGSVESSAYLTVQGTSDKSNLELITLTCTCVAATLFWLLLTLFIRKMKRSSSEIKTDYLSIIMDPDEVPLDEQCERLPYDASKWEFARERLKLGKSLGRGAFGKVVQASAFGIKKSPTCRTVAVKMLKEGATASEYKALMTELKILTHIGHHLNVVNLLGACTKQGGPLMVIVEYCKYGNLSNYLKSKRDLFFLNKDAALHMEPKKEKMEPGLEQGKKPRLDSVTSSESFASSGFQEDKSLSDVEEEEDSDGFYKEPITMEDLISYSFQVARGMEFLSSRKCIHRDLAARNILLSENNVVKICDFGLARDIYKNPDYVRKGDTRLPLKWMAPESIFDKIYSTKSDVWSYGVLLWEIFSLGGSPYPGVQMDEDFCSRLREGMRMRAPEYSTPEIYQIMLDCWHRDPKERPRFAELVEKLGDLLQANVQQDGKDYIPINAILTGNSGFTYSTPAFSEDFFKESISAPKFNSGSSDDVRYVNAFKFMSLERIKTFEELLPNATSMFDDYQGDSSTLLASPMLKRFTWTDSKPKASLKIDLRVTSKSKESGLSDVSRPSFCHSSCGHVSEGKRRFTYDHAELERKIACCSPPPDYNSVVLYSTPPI
Procedure, shortened: as §1

FLT4 = FLT4 (Homo sapiens, UniProt P35916)
Procedure, shortened: as §1

GAK = GAK (Homo sapiens, UniProt O14976)
Procedure, shortened: as §1

GRK1 = GRK1 (Homo sapiens, UniProt Q15835)
Procedure, shortened: as §1

GRK7 = GRK7 (Homo sapiens, UniProt Q8WTQ7)
Procedure, shortened: as §1

KIT(D816V) = KIT(D816V) (Homo sapiens, UniProt P10721, D816V)
Procedure, shortened: as §1

MAP4K3 = MAP4K3 (Homo sapiens, UniProt Q8IVH8)
Chain of MAP4K3 (Q8IVH8 whole entry): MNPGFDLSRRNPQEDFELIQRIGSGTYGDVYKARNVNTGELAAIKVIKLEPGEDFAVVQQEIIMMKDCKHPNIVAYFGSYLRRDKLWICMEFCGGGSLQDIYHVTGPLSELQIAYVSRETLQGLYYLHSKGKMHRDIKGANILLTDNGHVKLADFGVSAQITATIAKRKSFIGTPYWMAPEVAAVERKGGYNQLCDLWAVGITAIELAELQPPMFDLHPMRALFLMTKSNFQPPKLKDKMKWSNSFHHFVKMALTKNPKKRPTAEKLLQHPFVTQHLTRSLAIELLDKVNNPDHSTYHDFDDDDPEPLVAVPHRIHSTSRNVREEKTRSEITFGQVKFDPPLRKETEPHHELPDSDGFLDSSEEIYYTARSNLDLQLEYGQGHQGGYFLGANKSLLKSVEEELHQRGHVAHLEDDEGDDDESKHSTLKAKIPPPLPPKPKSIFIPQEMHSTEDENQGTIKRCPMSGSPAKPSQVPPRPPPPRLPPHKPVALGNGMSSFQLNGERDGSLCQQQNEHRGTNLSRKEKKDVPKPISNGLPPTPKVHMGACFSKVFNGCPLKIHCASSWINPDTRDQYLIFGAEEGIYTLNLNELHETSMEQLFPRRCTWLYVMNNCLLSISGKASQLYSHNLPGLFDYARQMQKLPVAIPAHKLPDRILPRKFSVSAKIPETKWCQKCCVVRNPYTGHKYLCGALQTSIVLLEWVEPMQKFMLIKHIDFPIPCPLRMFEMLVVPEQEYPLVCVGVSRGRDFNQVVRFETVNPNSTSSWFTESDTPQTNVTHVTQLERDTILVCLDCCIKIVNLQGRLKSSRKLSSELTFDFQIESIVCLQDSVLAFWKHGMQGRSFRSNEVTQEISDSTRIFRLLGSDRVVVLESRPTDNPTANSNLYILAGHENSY
Procedure, shortened: as §1

MARK1 = MARK1 (Homo sapiens, UniProt Q9P0L2)
Chain of MARK1 (Q9P0L2 whole entry): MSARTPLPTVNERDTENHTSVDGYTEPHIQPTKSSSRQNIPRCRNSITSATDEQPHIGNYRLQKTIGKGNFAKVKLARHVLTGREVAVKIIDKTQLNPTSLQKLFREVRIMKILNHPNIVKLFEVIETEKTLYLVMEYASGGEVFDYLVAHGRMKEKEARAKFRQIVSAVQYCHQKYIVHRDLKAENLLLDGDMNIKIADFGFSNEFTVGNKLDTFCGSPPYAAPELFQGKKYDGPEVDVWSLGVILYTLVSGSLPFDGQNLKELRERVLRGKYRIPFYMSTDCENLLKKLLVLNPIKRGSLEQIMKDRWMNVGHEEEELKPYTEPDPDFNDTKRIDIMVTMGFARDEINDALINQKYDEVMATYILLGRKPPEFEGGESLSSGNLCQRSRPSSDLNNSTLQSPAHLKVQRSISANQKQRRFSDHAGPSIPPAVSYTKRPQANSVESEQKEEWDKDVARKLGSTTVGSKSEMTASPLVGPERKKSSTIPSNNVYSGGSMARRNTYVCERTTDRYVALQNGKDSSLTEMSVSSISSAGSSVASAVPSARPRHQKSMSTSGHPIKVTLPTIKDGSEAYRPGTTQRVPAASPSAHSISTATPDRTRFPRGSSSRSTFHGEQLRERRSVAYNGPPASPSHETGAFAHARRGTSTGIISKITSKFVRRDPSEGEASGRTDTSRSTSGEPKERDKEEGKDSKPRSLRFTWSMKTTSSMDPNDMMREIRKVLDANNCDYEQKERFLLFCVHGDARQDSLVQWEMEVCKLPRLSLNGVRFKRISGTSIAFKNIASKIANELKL
Procedure, shortened: as §1

MYO3B = MYO3B (Homo sapiens, UniProt Q8WXR4)
Procedure, shortened: as §1

NDR1 = target: T4, NDR1 (Homo sapiens, UniProt Q15208)
T4 construct: gene STK38
Procedure, shortened: as §1

NLK = NLK (Homo sapiens, UniProt Q9UBE8)
Procedure, shortened: as §1

PDGFRB = PDGFRB (Homo sapiens, UniProt P09619)
Procedure, shortened: as §1

PIK3CA(H1047Y) = PIK3CA(H1047Y) (Homo sapiens, UniProt P42336, H1047Y)
Procedure, shortened: as §1

PIK3CA(I800L) = PIK3CA(I800L) (Homo sapiens, UniProt P42336, I800L)
Procedure, shortened: as §1

PIP5K2B = target: T5, PIP5K2B (Homo sapiens, UniProt P78356)
T5 construct: gene PIP4K2B
Procedure, shortened: as §1

PKAC-beta = target: T6, PKAC-beta (Homo sapiens, UniProt P22694)
T6 construct: gene PRKACB
Procedure, shortened: as §1

RET = RET (Homo sapiens, UniProt P07949)
Procedure, shortened: as §1

SNRK = SNRK (Homo sapiens, UniProt Q9NRH2)
Procedure, shortened: as §1

Compound: C=CC(=O)Nc1cc(-n2c(=O)ccc3cnc4ccc(-n5cccn5)cc4c32)ccc1C [CHMFL-BTK-11]
- remaining binding at 1 µM [1]: 100%
- remaining binding at 1 µM [2]: 72%
- remaining binding at 1 µM (ACVR2B): 95%
- remaining binding at 1 µM (CAMK2B): 100%
- remaining binding at 1 µM (EPHA5): 100%
- remaining binding at 1 µM (EPHB3): 97%
- remaining binding at 1 µM (ERK1): 100%
- remaining binding at 1 µM (FLT1): 88%
- remaining binding at 1 µM (FLT4): 100%
- remaining binding at 1 µM (GAK): 100%
- remaining binding at 1 µM (GRK1): 71%
- remaining binding at 1 µM (GRK7): 100%
- remaining binding at 1 µM (KIT(D816V)): 97%
- remaining binding at 1 µM (MAP4K3): 100%
- remaining binding at 1 µM (MARK1): 82%
- remaining binding at 1 µM (MYO3B): 90%
- remaining binding at 1 µM (NDR1): 68%
- remaining binding at 1 µM (NLK): 100%
- remaining binding at 1 µM (PDGFRB): 100%
- remaining binding at 1 µM (PIK3CA(H1047Y)): 82%
- remaining binding at 1 µM (PIK3CA(I800L)): 62%
- remaining binding at 1 µM (PIP5K2B): 100%
- remaining binding at 1 µM (PKAC-beta): 100%
- remaining binding at 1 µM (RET): 100%
- remaining binding at 1 µM (SNRK): 94%
